Where a SMILES comes first, the peptide text is derived from it. Bridges are numbered along the chain shown (N, C = ends). [ ]: non-standard residue; d: D form. Abu(4,4,4-F3) = N[C@@H](CC(F)(F)F)C(=O)O; Chg = N[C@H](C(=O)O)C1CCCCC1
Experiments:
[1] = biological target: Sodium channel protein type 4 subunit alpha (Homo sapiens, UniProt P35499); test: Inhibition of human Nav1.4 stably expressed in cells with train pulses to -20 mV at 0.1 Hz and holding potential of -95 mV by whole-cell Qube-automated patch clamp assay; format: cell-based
Sodium channel protein type 4 subunit alpha, sequence (P35499 whole entry): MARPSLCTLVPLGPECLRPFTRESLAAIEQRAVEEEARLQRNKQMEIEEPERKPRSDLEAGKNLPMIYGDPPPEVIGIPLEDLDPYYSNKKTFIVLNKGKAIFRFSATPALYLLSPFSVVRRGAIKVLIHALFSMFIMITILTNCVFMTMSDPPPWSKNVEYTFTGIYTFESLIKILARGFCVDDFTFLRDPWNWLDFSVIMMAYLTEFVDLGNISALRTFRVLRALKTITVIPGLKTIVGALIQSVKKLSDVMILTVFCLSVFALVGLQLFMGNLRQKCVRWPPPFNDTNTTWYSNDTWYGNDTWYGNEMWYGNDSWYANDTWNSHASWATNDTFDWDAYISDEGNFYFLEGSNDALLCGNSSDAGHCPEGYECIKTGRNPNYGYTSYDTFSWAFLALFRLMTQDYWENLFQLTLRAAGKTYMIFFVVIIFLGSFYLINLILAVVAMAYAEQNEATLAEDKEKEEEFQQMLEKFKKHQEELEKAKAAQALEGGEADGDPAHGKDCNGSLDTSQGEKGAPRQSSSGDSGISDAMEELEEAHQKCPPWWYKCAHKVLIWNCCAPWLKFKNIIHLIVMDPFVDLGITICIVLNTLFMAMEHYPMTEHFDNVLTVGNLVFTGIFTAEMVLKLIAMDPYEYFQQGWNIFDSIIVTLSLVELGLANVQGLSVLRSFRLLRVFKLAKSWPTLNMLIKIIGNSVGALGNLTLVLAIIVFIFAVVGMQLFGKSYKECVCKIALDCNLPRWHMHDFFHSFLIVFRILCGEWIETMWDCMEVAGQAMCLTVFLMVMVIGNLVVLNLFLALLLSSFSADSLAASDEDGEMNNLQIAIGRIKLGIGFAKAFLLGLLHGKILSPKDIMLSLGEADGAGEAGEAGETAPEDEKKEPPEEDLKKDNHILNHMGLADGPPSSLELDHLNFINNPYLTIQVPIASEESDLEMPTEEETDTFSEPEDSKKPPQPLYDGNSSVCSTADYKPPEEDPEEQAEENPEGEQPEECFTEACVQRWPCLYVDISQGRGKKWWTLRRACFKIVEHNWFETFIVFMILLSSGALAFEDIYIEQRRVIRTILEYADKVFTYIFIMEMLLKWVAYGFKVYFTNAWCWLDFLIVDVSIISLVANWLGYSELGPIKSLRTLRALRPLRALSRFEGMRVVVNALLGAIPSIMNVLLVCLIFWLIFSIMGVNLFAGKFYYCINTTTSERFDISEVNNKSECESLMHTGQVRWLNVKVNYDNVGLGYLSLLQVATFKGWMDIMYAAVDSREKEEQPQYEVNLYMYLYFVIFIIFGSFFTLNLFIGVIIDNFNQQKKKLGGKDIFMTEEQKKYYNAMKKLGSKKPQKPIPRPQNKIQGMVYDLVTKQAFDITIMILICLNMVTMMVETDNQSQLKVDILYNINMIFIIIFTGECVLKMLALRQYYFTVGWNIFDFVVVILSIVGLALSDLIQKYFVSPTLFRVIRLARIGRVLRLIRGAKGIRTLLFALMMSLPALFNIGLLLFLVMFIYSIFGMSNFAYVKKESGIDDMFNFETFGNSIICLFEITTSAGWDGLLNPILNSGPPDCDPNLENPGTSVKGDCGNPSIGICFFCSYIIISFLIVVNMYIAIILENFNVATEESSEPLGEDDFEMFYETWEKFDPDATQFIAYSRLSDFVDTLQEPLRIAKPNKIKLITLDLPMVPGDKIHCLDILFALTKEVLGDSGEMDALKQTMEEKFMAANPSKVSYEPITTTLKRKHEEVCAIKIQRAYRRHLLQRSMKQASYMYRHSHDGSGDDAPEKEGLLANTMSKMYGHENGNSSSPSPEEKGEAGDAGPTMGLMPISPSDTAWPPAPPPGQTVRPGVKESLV

[2] = biological target: Sodium channel protein type 9 subunit alpha (Homo sapiens, UniProt Q15858); test: Inhibition of human Nav1.7 stably expressed in cells with train pulses to -20 mV at 0.1 Hz and holding potential of -95 mV by Qube-automated patch clamp assay; format: cell-based
Sodium channel protein type 9 subunit alpha, sequence (Q15858 whole entry): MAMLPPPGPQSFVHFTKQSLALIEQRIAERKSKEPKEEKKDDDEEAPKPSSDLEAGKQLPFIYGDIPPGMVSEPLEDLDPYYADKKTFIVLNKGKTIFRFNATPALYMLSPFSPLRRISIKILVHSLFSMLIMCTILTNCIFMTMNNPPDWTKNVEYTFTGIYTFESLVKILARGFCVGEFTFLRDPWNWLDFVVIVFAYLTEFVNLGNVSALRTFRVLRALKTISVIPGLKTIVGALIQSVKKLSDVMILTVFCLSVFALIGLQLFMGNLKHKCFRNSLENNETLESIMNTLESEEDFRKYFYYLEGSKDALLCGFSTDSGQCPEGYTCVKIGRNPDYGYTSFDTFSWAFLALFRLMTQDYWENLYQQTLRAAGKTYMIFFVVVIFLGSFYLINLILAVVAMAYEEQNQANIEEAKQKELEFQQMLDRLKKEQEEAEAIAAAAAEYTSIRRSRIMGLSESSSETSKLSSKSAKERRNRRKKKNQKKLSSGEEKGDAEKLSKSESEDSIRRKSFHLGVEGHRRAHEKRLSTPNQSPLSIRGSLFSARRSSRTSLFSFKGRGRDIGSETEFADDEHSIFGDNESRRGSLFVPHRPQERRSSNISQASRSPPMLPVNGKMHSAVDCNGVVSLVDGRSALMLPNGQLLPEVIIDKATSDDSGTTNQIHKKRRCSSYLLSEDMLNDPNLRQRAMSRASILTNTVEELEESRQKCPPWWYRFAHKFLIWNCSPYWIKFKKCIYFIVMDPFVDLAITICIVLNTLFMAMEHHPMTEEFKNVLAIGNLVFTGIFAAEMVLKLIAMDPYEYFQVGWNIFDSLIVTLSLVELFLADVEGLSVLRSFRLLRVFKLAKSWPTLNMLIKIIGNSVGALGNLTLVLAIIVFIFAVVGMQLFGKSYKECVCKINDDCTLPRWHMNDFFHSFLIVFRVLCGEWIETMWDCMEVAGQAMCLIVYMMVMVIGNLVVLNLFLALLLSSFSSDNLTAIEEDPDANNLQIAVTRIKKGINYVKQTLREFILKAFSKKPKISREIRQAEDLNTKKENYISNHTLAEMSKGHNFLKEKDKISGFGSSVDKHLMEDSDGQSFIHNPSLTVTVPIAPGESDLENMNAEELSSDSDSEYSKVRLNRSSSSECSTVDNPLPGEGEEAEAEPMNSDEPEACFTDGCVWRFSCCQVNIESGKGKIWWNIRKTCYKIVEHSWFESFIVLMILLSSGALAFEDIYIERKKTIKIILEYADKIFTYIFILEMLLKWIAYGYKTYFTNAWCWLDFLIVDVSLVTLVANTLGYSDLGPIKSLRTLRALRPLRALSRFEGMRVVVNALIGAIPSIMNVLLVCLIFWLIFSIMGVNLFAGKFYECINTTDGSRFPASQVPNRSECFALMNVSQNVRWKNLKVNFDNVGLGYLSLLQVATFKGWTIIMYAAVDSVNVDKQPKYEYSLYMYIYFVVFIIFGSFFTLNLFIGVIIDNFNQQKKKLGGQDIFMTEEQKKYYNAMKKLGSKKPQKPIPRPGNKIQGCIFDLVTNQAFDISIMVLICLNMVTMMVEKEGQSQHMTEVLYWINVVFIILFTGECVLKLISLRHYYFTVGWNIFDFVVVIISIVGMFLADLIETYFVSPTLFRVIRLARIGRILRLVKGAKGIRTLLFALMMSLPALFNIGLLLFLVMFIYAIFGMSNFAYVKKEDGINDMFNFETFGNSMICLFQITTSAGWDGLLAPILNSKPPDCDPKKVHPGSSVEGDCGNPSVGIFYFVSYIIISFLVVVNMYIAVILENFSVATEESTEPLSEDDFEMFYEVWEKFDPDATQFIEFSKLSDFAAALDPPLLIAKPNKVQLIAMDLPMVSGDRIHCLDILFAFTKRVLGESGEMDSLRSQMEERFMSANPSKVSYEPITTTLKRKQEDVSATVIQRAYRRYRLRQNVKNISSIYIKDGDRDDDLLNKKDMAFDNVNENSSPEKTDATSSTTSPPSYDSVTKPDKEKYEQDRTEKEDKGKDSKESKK

[3] = biological target: Sodium channel protein type 8 subunit alpha (Homo sapiens, UniProt Q9UQD0); test: Inhibition of human Nav1.6 stably expressed in cells with train pulses to -20 mV at 0.1 Hz and holding potential of -85 mV by whole-cell Qube-automated patch clamp assay; format: cell-based
[4] = Inhibition of mast cell degranulation in Wistar Han rat peritoneal lavage mast cells assessed as inhibition histamine release by measuring lowest concentration at which histamine release observed measured after 30 mins; format: functional; details: 0.5 h

Row | Structure (SMILES) | IC50 [1] [µM] | IC50 [2] [µM] | IC50 [3] [µM] | LED [4] [µM]
1 | CC(=O)N[C@H]1CSSC[C@@H]2NC(=O)[C@@H]3CSSC[C@@H](C(=O)N[C@@H](CCCCN)C(=O)N[C@@H](CCCCN)C(=O)N[C@@H](CCCCN)C(=O)N[C@@H](CC(C)C)C(=O)N[C@@H](Cc4c[nH]c5ccccc45)C(N)=O)NC(=O)[C@H](Cc4c[nH]c5ccccc45)NC(=O)[C@H](CC(C)C)NC(=O)[C@H](CCCNC(=N)N)NC(=O)[C@H](CSSC[C@H](NC(=O)[C@@H]4CCCN4C(=O)[C@H](CCC(=O)O)NC(=O)[C@H](CC(C)C)NC(=O)[C@H](Cc4ccccc4)NC(=O)[C@H](CCCCN)NC(=O)[C@H](CCC(N)=O)NC1=O)C(=O)N[C@@H](CC(=O)O)C(=O)N[C@@H](CO)C(=O)N[C@@H](CCC(=O)O)C(=O)N[C@@H](CCCNC(=N)N)C(=O)N[C@@H](CCCCN)C(=O)N3)NC(=O)[C@H](CCC(=O)O)NC(=O)[C@H](CC(C)C)NC(=O)CNC(=O)[C@H](CCC(=O)O)NC2=O (Ac-CQKFLEPCDSERKCCEGLECRLWCKKKLW-NH2; disulfide 1-15, 8-20, 14-24) | > 17 | 0.097 | > 17 | 10
2 | CC(=O)N[C@H]1CSSC[C@@H]2NC(=O)[C@@H]3CSSC[C@@H](C(=O)N[C@@H](CCCCN)C(=O)N[C@@H](CCCCN)C(=O)N[C@@H](CCCCN)C(=O)N[C@@H](CC(C)C)C(=O)N[C@@H](Cc4c[nH]c5ccccc45)C(N)=O)NC(=O)[C@H](Cc4c[nH]c5ccccc45)NC(=O)[C@H](CC(C)C)NC(=O)[C@H](CCCCN)NC(=O)[C@H](CSSC[C@H](NC(=O)[C@@H]4CCCN4C(=O)[C@H](CCCCN)NC(=O)[C@H](CC(C)C)NC(=O)[C@H](Cc4ccccc4)NC(=O)[C@H](CCC(=O)O)NC(=O)[C@H](CCC(N)=O)NC1=O)C(=O)N[C@@H](CC(=O)O)C(=O)N[C@@H](CO)C(=O)N[C@@H](CCC(=O)O)C(=O)N[C@@H](CCCNC(=N)N)C(=O)N[C@@H](CCCCN)C(=O)N3)NC(=O)[C@H](CCC(=O)O)NC(=O)[C@H](CC(C)C)NC(=O)CNC(=O)[C@H](CCC(=O)O)NC2=O (Ac-CQEFLKPCDSERKCCEGLECKLWCKKKLW-NH2; disulfide 1-15, 8-20, 14-24) | > 17 | 0.113 | > 17 | 3.3
3 | CC(=O)N[C@H]1CSSC[C@@H]2NC(=O)[C@@H]3CSSC[C@@H](C(=O)N[C@@H](CCCCN)C(=O)N[C@@H](CCCCN)C(=O)N[C@@H](CCCCN)C(=O)N[C@@H](CC(C)C)C(N)=O)NC(=O)[C@H](Cc4c[nH]c5ccccc45)NC(=O)[C@H](C4CCCCC4)NC(=O)[C@H](CCCCN)NC(=O)[C@H](CSSC[C@H](NC(=O)[C@@H]4CCCN4C(=O)[C@H](CCC(=O)O)NC(=O)[C@H](CC(F)(F)F)NC(=O)[C@H](Cc4ccccc4)NC(=O)[C@H](CCCCN)NC(=O)[C@H](CCC(N)=O)NC1=O)C(=O)N[C@@H](CC(=O)O)C(=O)N[C@@H](CO)C(=O)N[C@@H](CCC(=O)O)C(=O)N[C@@H](CCCNC(=N)N)C(=O)N[C@@H](CCCCN)C(=O)N3)NC(=O)[C@H](CCC(=O)O)NC(=O)[C@H](CC(C)C)NC(=O)CNC(=O)[C@H](CCC(=O)O)NC2=O (Ac-CQKF[Abu(4,4,4-F3)]EPCDSERKCCEGLECK[Chg]WCKKKL-NH2; disulfide 1-15, 8-20, 14-24) | > 17 | 0.24 | > 17 | 100

Reference: ChEMBL document CHEMBL5038633 (J Med Chem, 2022)
